Where “and” joins values, the source holds several entries; their conditions need not be identical. Identical values can stand only once.
What was measured:
human OCT1*1 (wild-type) = molecular target: T1, human OCT1*1 (wild-type) (Homo sapiens, UniProt O15245); experiment: Concentration-dependent uptake (transport kinetics) in HEK293 cells overexpressing OCT1 wild-type; details: for OCT1 substrate classification from concentration-dependent uptake: good >5, poor 1–5, non-substrate <1 µL/mg protein/min or uptake not above empty vector; for Clint (±SEM): intrinsic clearance = ratio of Vmax and KM, OCT1 wild-type; for Vmax (±SEM): net uptake (OCT1 minus empty vector), HEK293, 0.1-1000 µM substrate, Michaelis–Menten
T1 sequence (O15245 1-554): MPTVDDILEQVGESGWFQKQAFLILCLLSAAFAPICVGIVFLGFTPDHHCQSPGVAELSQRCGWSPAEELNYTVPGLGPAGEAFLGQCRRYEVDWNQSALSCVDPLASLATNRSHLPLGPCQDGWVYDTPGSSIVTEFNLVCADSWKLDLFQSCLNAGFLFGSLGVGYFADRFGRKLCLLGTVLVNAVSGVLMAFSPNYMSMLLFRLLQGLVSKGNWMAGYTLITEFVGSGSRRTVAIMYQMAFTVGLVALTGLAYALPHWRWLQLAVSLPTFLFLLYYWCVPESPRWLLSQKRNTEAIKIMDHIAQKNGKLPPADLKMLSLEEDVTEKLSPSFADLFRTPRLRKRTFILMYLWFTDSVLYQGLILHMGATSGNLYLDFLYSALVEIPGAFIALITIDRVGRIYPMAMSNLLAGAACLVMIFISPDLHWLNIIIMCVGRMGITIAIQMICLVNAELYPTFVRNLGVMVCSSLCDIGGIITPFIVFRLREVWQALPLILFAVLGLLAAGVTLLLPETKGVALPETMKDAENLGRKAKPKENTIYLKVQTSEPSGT

[1] = molecular target: T2, variant human OCT1*2 (M420del) (Homo sapiens, UniProt O15245, DEL420-420); experiment: Cellular uptake by HEK293 cells overexpressing OCT1*2; assay type: cell-based; details: for uptake by OCT1*2 in comparison to OCT1*1: 1 µM substance; for uptake of prostaglandins by OCT1*2 in comparison to wild-type: 1, 10 and 100 µM, 120 s
T2 construct: expressed in transfected cells
T2 sequence (O15245 with tags, fused parts or gaps DEL420-420): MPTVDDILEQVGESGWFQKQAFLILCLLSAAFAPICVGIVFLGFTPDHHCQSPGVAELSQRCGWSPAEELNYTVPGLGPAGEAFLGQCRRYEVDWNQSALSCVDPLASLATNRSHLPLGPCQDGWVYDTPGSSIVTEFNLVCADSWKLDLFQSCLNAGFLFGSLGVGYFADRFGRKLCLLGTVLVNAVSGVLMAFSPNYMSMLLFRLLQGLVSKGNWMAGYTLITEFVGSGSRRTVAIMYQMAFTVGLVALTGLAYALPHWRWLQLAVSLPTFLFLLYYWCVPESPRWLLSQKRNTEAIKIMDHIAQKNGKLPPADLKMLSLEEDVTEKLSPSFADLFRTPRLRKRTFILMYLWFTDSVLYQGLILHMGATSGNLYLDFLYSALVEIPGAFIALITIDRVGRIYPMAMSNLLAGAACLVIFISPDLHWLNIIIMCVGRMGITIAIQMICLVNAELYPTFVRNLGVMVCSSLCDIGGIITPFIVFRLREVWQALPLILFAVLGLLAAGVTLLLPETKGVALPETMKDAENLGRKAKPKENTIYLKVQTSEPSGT
Protocol: The wild-type cell lines of OCT1 and OCT2, as well as the variant cell lines OCT1*2 and *3, were generated using the Flp-In system (Thermo Fisher Scientific, Darmstadt, Germany) as described in previous publications. The cell line overexpressing OCT3 was a kind gift from Dr. Koepsell and Dr. Gorbulev (University of Würzburg, Germany). Cells transfected with the empty pcDNA5/FRT vector were used for the transport experiments as a control cell line. All cells were cultured approximately up to passage 30.
Forty-eight hours before the transport experiments, 600,000 cells were plated on 12-well plates pre-coated with poly-D-lysine and incubated at 37 °C with 5% CO2. The prepared 12-well plate with cells was positioned on a heating plate pre-warmed to 37 °C. After removing the medium, the cells were washed with 37 °C HBSS+ (10 mM HEPES in Hank’s balanced salt solution, pH 7.4). Then, one pre-defined concentration of a substrate was added to each well. The incubation period was stopped by adding 2 mL of 4 °C HBSS+ and removing the cells from the heating plate. The cells were washed twice with 4 °C HBSS+. For cell lysis, the cells were incubated for 15 min with 500 µL of 80% acetonitrile (LGC Standards, Wesel, Germany), which contained a respective internal standard (Table 1).
For concentration-dependent transport, the cells were incubated with defined substrate concentrations (0.1, 1, 10, 30, 100, 300, 600, 1000 µM) for the respective pre-defined incubation times. […] The uptake by a transporter was normalised to the uptake by empty vector-transfected cells. […] The results of transport experiments were normalized to the total protein concentration per well. Total protein quantification was performed using a bicinchoninic acid assay with bovine serum albumin as standard.
The ratios of cellular uptake were calculated by dividing the total uptake of transporter-overexpressing cells by the total uptake into empty vector transfected cells. The concentration-dependent cellular net uptake was used for analysis of transport kinetics by subtracting for each substrate concentration the uptake of empty vector-transfected cells from the uptake of transporter-overexpressing cells. […] The intrinsic clearance Clint was expressed with the ratio of Vmax and KM.

| SMILES | OCT1 substrate classification from concentration-dependent uptake (human OCT1*1 (wild-type)) | Clint (±SEM) (human OCT1*1 (wild-type)) | uptake by OCT1*2 in comparison to OCT1*1 [1] | Vmax (±SEM) (human OCT1*1 (wild-type)) [pmol/mg Protein/min] | Clint (±SEM) (human OCT1*1 (wild-type); listed as prostaglandin F2α) [µL/mg Protein/min] | Clint (±SEM) (human OCT1*1 (wild-type); listed as prostaglandin E2) [µL/mg Protein/min] | Clint (±SEM) (human OCT1*1 (wild-type); listed as emtricitabine) [µL/mg Protein/min] | Clint (±SEM) (human OCT1*1 (wild-type); listed as levodopa) [µL/mg Protein/min] | uptake of prostaglandins by OCT1*2 in comparison to wild-type [1] |
| --- | --- | --- | --- | --- | --- | --- | --- | --- | --- |
| COc1cc(Cc2cnc(N)nc2N)cc(OC)c1OC [Trimethoprim, trimethoprim] | – | – | reduction in uptake | 300 ± 16.9 | – | – | – | – | – |
| CCCCC[C@H](O)/C=C/[C@@H]1[C@@H](C/C=C\CCCC(=O)O)[C@@H](O)C[C@H]1O [Prostaglandin F2α, prostaglandin F2α] | (poor) substrates of OCT1 | 1.40 ± 1.09 µL/mg Protein/min | – | 1007 | 1.4 | – | – | – | reduced to the level of the control cell line |
| N=C(N)c1ccc(OCCCCCOc2ccc(C(=N)N)cc2)cc1 [Pentamidine, pentamidine] | poor substrate of OCT1 | 1.15 µL/mg Protein/min and 1.15 ± 1.75 µL/mg Protein/min | to a small extent | 143 ± 63.1 | – | – | – | – | – |
| CCCCC[C@H](O)/C=C/[C@H]1[C@H](O)CC(=O)[C@@H]1C/C=C\CCCC(=O)O [Prostaglandin E2, prostaglandin E2] | (poor) substrates of OCT1 | 3.50 ± 3.42 µL/mg Protein/min | – | 4119 | – | 3.5 | – | – | reduced to the level of the control cell line |
| Nc1nc(=O)n([C@@H]2CS[C@H](CO)O2)cc1F [Emtricitabine, emtricitabine] | – | 6.15 ± 2.82 µL/mg Protein/min | reduction in uptake | – | – | – | 6.15 | – | – |

The next lines start with results.

| OCT1 substrate classification from concentration-dependent uptake (human OCT1*1 (wild-type)) | Clint (±SEM) (human OCT1*1 (wild-type)) | uptake by OCT1*2 in comparison to OCT1*1 [1] | Vmax (±SEM) (human OCT1*1 (wild-type)) [pmol/mg Protein/min] | Clint (±SEM) (human OCT1*1 (wild-type); listed as prostaglandin F2α) [µL/mg Protein/min] | Clint (±SEM) (human OCT1*1 (wild-type); listed as prostaglandin E2) [µL/mg Protein/min] | Clint (±SEM) (human OCT1*1 (wild-type); listed as emtricitabine) [µL/mg Protein/min] | Clint (±SEM) (human OCT1*1 (wild-type); listed as levodopa) [µL/mg Protein/min] | SMILES | uptake of prostaglandins by OCT1*2 in comparison to wild-type [1] |
| --- | --- | --- | --- | --- | --- | --- | --- | --- | --- |
| poor transport efficiency | 2.57 ± 0.65 µL/mg Protein/min | reduction in uptake | – | – | – | – | – | Nc1ccn([C@H]2CC[C@@H](CO)O2)c(=O)n1 [Zalcitabine, zalcitabine] | – |
| – | 13.8 ± 8.6 µL/mg Protein/min | – | 4993 ± 884 | – | – | – | 13.8 | N[C@@H](Cc1ccc(O)c(O)c1)C(=O)O [Levodopa, levodopa] | – |

Source: PMC9687798, “Atypical Substrates of the Organic Cation Transporter 1” (Biomolecules, 2022)
